Each structure is given as a SMILES string. Where two headings read alike, the source gives them in different places.

The assay deals with HCV genotype 1b replicon in Huh 7 cells. The experiment in a line: HCV replicon assay (1b_Huh-Luc/Neo-ET cell line, luciferase readout). In kind it is cell-based. As to conditions: Hepatitis C virus, read-out: Inhibition of HCV genotype 1b. In a few lines:
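Huh 7 cells carrying a bicistronic genotype 1b luciferase replicon were treated with compound in triplicate the day after plating and incubated 72 h. Luciferase activity expressed as % of untreated control; EC50 from a four-parameter logistic fit, repeated several times.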
(In general: Replicon systems follow genome replication, usually without infectious particles.)

[1] abbreviates: Table 2, genotype 1b replicon, Huh 7 cells, 72 h, luciferase.

In the case of `COC(=O)N[C@@H](C)C(=O)N1CCC[C@H]1c1ncc(-c2ccc3cc(-c4ccc5nc([C@@H]6COCCN6C(=O)[C@H](C)NC(=O)OC)[nH]c5c4)ccc3c2)[nH]1` [compound 359], under setting [1], the EC50 was less than 1 nM.

With `COC(=O)N[C@H](C(=O)N1CCC[C@H]1c1ncc(-c2ccc3cc(-c4ccc5nc([C@@H]6COCCN6C(=O)[C@@H](NC(=O)OC)C6CCCCC6)[nH]c5c4)ccc3c2)[nH]1)C1CCCCC1` [compound 361], under setting [1], the EC50 was less than 1 nM.

Take `COC(=O)N[C@H](C(=O)N1CCC[C@H]1c1ncc(-c2ccc3cc(-c4ccc5nc([C@@H]6CCCN6C(=O)[C@@H](NC(=O)OC)C6CCCC6)[nH]c5c4)ncc3c2)[nH]1)C1CCCC1` [compound 372]: under setting [1], the EC50 was less than 1 nM.

For the compound `CC[C@H](C)[C@H](NC(=O)OC)C(=O)N1CCC[C@H]1c1ncc(-c2ccc3cc(-c4ccc5nc([C@@H]6CCCN6C(=O)[C@@H](NC(=O)OC)[C@@H](C)CC)[nH]c5c4)ncc3c2)[nH]1` [compound 374], the EC50 under setting [1] is less than 1 nM.

In the case of `CC[C@@H](C)[C@H](NC(=O)OC)C(=O)N1CCC[C@H]1c1ncc(-c2ccc3cc(-c4ccc5nc([C@@H]6CCCN6C(=O)[C@@H](NC(=O)OC)[C@H](C)CC)[nH]c5c4)ncc3c2)[nH]1` [compound 375], under setting [1], the EC50 is less than 1 nM.

Turning to `COC(=O)N[C@H](C(=O)N1CCC[C@H]1c1ncc(-c2ccc3cc(-c4ccc5nc([C@@H]6CCCN6C(=O)[C@@H](NC(=O)OC)C6CC6)[nH]c5c4)ncc3c2)[nH]1)C1CC1` [compound 376], the EC50 under setting [1] was less than 1 nM.

With `COC(=O)N[C@H](C(=O)N1CCC[C@H]1c1ncc(-c2ccc3cc(-c4ccc5nc([C@@H]6CCCN6C(=O)[C@@H](NC(=O)OC)[C@@H](C)OC)[nH]c5c4)ncc3c2)[nH]1)[C@@H](C)OC` [compound 377], the EC50 under setting [1] is less than 1 nM.

`COC(=O)N[C@H](C(=O)N1CCC[C@H]1c1ncc(-c2ccc3cc(-c4ccc5nc([C@@H]6CCCN6C(=O)[C@@H](NC(=O)OC)C6CCCCC6)[nH]c5c4)ncc3c2)[nH]1)C1CCCCC1` [compound 379]: under setting [1], the EC50 is less than 1 nM.

As to `COC(=O)N[C@H](C(=O)N1CCC[C@H]1c1ncc(-c2ccc3nc(-c4ccc5nc([C@@H]6CCCN6C(=O)[C@@H](NC(=O)OC)C6CCCC6)[nH]c5c4)ccc3c2)[nH]1)C1CCCC1` [compound 381], the EC50 under setting [1] was less than 1 nM.

In the case of `CCC(CC)[C@H](NC(=O)OC)C(=O)N1CCC[C@H]1c1ncc(-c2ccc3nc(-c4ccc5nc([C@@H]6CCCN6C(=O)[C@@H](NC(=O)OC)C(CC)CC)[nH]c5c4)ccc3c2)[nH]1` [compound 382], under setting [1], the EC50 was less than 1 nM.

On to `CC[C@H](C)[C@H](NC(=O)OC)C(=O)N1CCC[C@H]1c1ncc(-c2ccc3nc(-c4ccc5nc([C@@H]6CCCN6C(=O)[C@@H](NC(=O)OC)[C@@H](C)CC)[nH]c5c4)ccc3c2)[nH]1` [compound 383], for which, under setting [1], the EC50 was less than 1 nM.

On to `CC[C@@H](C)[C@H](NC(=O)OC)C(=O)N1CCC[C@H]1c1ncc(-c2ccc3nc(-c4ccc5nc([C@@H]6CCCN6C(=O)[C@@H](NC(=O)OC)[C@H](C)CC)[nH]c5c4)ccc3c2)[nH]1` [compound 384], for which the EC50 under setting [1] was less than 1 nM.

For the compound `COC(=O)N[C@H](C(=O)N1CCC[C@H]1c1ncc(-c2ccc3nc(-c4ccc5nc([C@@H]6CCCN6C(=O)[C@@H](NC(=O)OC)C6CC6)[nH]c5c4)ccc3c2)[nH]1)C1CC1` [compound 385], the EC50 under setting [1] was less than 1 nM.

Turning to `COC(=O)N[C@H](C(=O)N1CCC[C@H]1c1ncc(-c2ccc3nc(-c4ccc5nc([C@@H]6CCCN6C(=O)[C@@H](NC(=O)OC)[C@@H](C)OC)[nH]c5c4)ccc3c2)[nH]1)[C@@H](C)OC` [compound 386], the EC50 under setting [1] was less than 1 nM.

Regarding `COC(=O)N[C@H](C(=O)N1CCC[C@H]1c1ncc(-c2ccc3nc(-c4ccc5nc([C@@H]6CCCN6C(=O)[C@@H](NC(=O)OC)C6CCCCC6)[nH]c5c4)ccc3c2)[nH]1)C1CCCCC1` [compound 388], the EC50 under setting [1] was less than 1 nM.

With `COC(=O)N[C@H](C(=O)N1CCC[C@H]1c1ncc(-c2ccc3cc(-c4ccc5nc([C@@H]6CCCN6C(=O)[C@@H](NC(=O)OC)C(C)C)[nH]c5c4)nnc3c2)[nH]1)C(C)C` [compound 390], the EC50 under setting [1] is less than 1 nM.

As to `COC(=O)N[C@H](C(=O)N1CCC[C@H]1c1ncc(-c2ccc3cc(-c4ccc5nc([C@@H]6CCCN6C(=O)[C@@H](NC(=O)OC)C6CCCC6)[nH]c5c4)nnc3c2)[nH]1)C1CCCC1` [compound 393], under setting [1], the EC50 is less than 1 nM.

As for `CC[C@@H](C)[C@H](NC(=O)OC)C(=O)N1CCC[C@H]1c1ncc(-c2ccc3cc(-c4ccc5nc([C@@H]6CCCN6C(=O)[C@@H](NC(=O)OC)[C@H](C)CC)[nH]c5c4)nnc3c2)[nH]1` [compound 396], under setting [1], the EC50 is less than 1 nM.

On to `COC(=O)N[C@H](C(=O)N1CCC[C@H]1c1ncc(-c2ccc3cc(-c4ccc5nc([C@@H]6CCCN6C(=O)[C@@H](NC(=O)OC)C6CCCCC6)[nH]c5c4)nnc3c2)[nH]1)C1CCCCC1` [compound 400], for which, under setting [1], the EC50 is less than 1 nM.

For the compound `COC(=O)N[C@H](C(=O)N1CCC[C@H]1c1ncc(-c2ccc3cc(-c4cnc5nc([C@@H]6CCCN6C(=O)[C@@H](NC(=O)OC)C(C)C)[nH]c5c4)ccc3c2)[nH]1)C(C)C` [compound 402], the EC50 under setting [1] was in the range of 1 to 9.9 nM.

For `COC(=O)N[C@H](C(=O)N1CCC[C@H]1c1ncc(-c2ccc3cc(-c4cnc5nc([C@@H]6CCCN6C(=O)[C@@H](NC(=O)OC)C6CCCC6)[nH]c5c4)ccc3c2)[nH]1)C1CCCC1` [compound 403], under setting [1], the EC50 is less than 1 nM.

For the compound `CC[C@H](C)[C@H](NC(=O)OC)C(=O)N1CCC[C@H]1c1ncc(-c2ccc3cc(-c4cnc5nc([C@@H]6CCCN6C(=O)[C@@H](NC(=O)OC)[C@@H](C)CC)[nH]c5c4)ccc3c2)[nH]1` [compound 404], under setting [1], the EC50 was less than 1 nM.

As for `CC[C@@H](C)[C@H](NC(=O)OC)C(=O)N1CCC[C@H]1c1ncc(-c2ccc3cc(-c4cnc5nc([C@@H]6CCCN6C(=O)[C@@H](NC(=O)OC)[C@H](C)CC)[nH]c5c4)ccc3c2)[nH]1` [compound 405], the EC50 under setting [1] was less than 1 nM.

Regarding `COC(=O)N[C@H](C(=O)N1CCC[C@H]1c1ncc(-c2ccc3cc(-c4cnc5nc([C@@H]6CCCN6C(=O)[C@@H](NC(=O)OC)C6CC6)[nH]c5c4)ccc3c2)[nH]1)C1CC1` [compound 406], the EC50 under setting [1] was less than 1 nM.

As for `COC(=O)N[C@H](C(=O)N1CCC[C@H]1c1ncc(-c2ccc3cc(-c4cnc5nc([C@@H]6CCCN6C(=O)[C@@H](NC(=O)OC)C6CCCCC6)[nH]c5c4)ccc3c2)[nH]1)C1CCCCC1` [compound 409], the EC50 under setting [1] is less than 1 nM.

`COC(=O)N[C@H](C(=O)N1CCC[C@H]1c1ncc(-c2ccc3cc(-c4cc5[nH]c([C@@H]6CCCN6C(=O)[C@@H](NC(=O)OC)C6CCCC6)nc5cn4)ccc3c2)[nH]1)C1CCCC1` [compound 411]: the EC50 under setting [1] was less than 1 nM.

As for `CC[C@H](C)[C@H](NC(=O)OC)C(=O)N1CCC[C@H]1c1ncc(-c2ccc3cc(-c4cc5[nH]c([C@@H]6CCCN6C(=O)[C@@H](NC(=O)OC)[C@@H](C)CC)nc5cn4)ccc3c2)[nH]1` [compound 412], under setting [1], the EC50 was less than 1 nM.

For the compound `CC[C@@H](C)[C@H](NC(=O)OC)C(=O)N1CCC[C@H]1c1ncc(-c2ccc3cc(-c4cc5[nH]c([C@@H]6CCCN6C(=O)[C@@H](NC(=O)OC)[C@H](C)CC)nc5cn4)ccc3c2)[nH]1` [compound 413], under setting [1], the EC50 is less than 1 nM.

Regarding `COC(=O)N[C@H](C(=O)N1CCC[C@H]1c1ncc(-c2ccc3cc(-c4cc5[nH]c([C@@H]6CCCN6C(=O)[C@@H](NC(=O)OC)C6CC6)nc5cn4)ccc3c2)[nH]1)C1CC1` [compound 414], the EC50 under setting [1] is less than 1 nM.

`COC(=O)N[C@H](C(=O)N1CCC[C@H]1c1ncc(-c2ccc3cc(-c4cc5[nH]c([C@@H]6CCCN6C(=O)[C@@H](NC(=O)OC)[C@@H](C)OC)nc5cn4)ccc3c2)[nH]1)[C@@H](C)OC` [compound 415]: the EC50 under setting [1] was less than 1 nM.

In the case of `COC(=O)N[C@H](C(=O)N1CCC[C@H]1c1ncc(-c2ccc3cc(-c4cc5[nH]c([C@@H]6CCCN6C(=O)[C@@H](NC(=O)OC)C6CCCCC6)nc5cn4)ccc3c2)[nH]1)C1CCCCC1` [compound 417], the EC50 under setting [1] was less than 1 nM.

Turning to `COC(=O)N[C@H](C(=O)N1CCC[C@H]1c1ncc(-c2ccc(-c3ccc4cc(-c5cnc([C@@H]6CSCN6C(=O)[C@@H](NC(=O)OC)C(C)C)[nH]5)ccc4c3)cc2)[nH]1)C(C)C` [compound 451], the EC50 (Huh-7, HCV 1b replicon) was less than 1 nM.

Consider `COC(=O)N[C@H](C(=O)N1CCC[C@H]1c1ncc(-c2ccc3nc(-c4ccc(-c5cnc([C@@H]6CCCN6C(=O)[C@H](NC(=O)OC6CCOCC6)c6ccccc6)[nH]5)c(F)c4)ccc3c2)[nH]1)C(C)C` [compound 452], for which, under “Huh-7, HCV 1b replicon”, the EC50 was less than 1 nM.

With `COC(=O)N[C@H](C(=O)N1CCC[C@H]1c1ncc(-c2ccc3nc(-c4ccc(-c5cnc([C@@H]6CCCN6C(=O)[C@H](NC(=O)OC)c6ccccc6)[nH]5)c(F)c4)ccc3c2)[nH]1)C(C)C` [compound 453], for the setting “Huh-7, HCV 1b replicon”, the EC50 is less than 1 nM.

Regarding `COC(=O)N[C@H](C(=O)N1CCC[C@H]1c1ncc(-c2ccc3nc(-c4ccc(-c5cnc([C@@H]6CCCN6C(=O)[C@@H](NC(=O)OC)C6CCOCC6)[nH]5)c(F)c4)ccc3c2)[nH]1)C(C)C` [compound 454], the EC50 (Huh-7, HCV 1b replicon) was less than 1 nM.

For the compound `COC(=O)N[C@H](C(=O)N1CCCC[C@H]1c1ncc(-c2ccc(-c3ccc4cc(-c5cnc([C@@H]6CCCN6C(=O)[C@@H](NC(=O)OC)C(C)C)[nH]5)ccc4n3)cc2)[nH]1)C(C)C` [compound 455], the EC50 (Huh-7, HCV 1b replicon) is less than 1 nM.

As to `COC(=O)N[C@H](C(=O)N1CCCC[C@H]1c1ncc(-c2ccc(-c3ccc4cc(-c5cnc([C@@H]6CCCN6C(=O)[C@@H](NC(=O)OC)C6CCOCC6)[nH]5)ccc4n3)cc2)[nH]1)C1CCOCC1` [compound 456], the EC50 (Huh-7, HCV 1b replicon) was less than 1 nM.

With `COC(=O)N[C@@H](C(=O)N1CCCC[C@H]1c1ncc(-c2ccc(-c3ccc4cc(-c5cnc([C@@H]6CCCN6C(=O)[C@H](NC(=O)OC)c6ccccc6)[nH]5)ccc4n3)cc2)[nH]1)c1ccccc1` [compound 457], the EC50 (Huh-7, HCV 1b replicon) is less than 1 nM.

Regarding `O=C(N[C@@H](C(=O)N1CCCC[C@H]1c1ncc(-c2ccc(-c3ccc4cc(-c5cnc([C@@H]6CCCN6C(=O)[C@H](NC(=O)OC6CCOCC6)c6ccccc6)[nH]5)ccc4n3)cc2)[nH]1)c1ccccc1)OC1CCOCC1` [compound 458], under “Huh-7, HCV 1b replicon”, the EC50 was less than 1 nM.

Values taken from patent publication US8877707B2, “Inhibitors of HCV NS5A” (Presidio Pharmaceuticals, Inc., priority 2010, dated 2014).
